Measured values from patent US20230173018A1, “CASPOFUNGIN DERIVATIVES AND ASSAYS FOR EVALUATING ANTIFUNGAL TREATMENT EFFICACY” (priority 2020, published 2023).
≈ marks a conversion by molar mass, not a printed value. Read-outs that look alike come from different tables or passages of the source.

Assays:
Assay type in all cases: cell-based
[1] = system: C. glabrata TGL00056; assay: microbe, parasite or virus in culture; conditions: strain no. 22, TGL00056, parental CST34, FKS mutant
Description: (§1) The antifungal activities of compounds 1a, 1 and 2 (collectively: caspofungin derivatives) were compared to that of caspofungin and CSF-BOD using a panel of 49 C. albicans and C. glabrata strains (Tables 1 and 2). The panel included ATCC strains and clinical isolates as well a collection of caspofungin-responsive strains and their corresponding isogenic caspofungin-resistant derivatives, constructed by introducing point mutations within and near the defined hotspots in the FKS1 and/or FKS2 genes of the GS complex. Minimal inhibitory concentration (MIC) values for all strains were determined using the broth double dilution method and are summarized in FIG. 2 and Table 2. […] The clinical breakpoints (threshold) for caspofungin-resistance in C. albicans and C. glabrata are 1 μg/mL and 0.5 μg/mL, respectively.

[2] = system: C. albicans T-2077 (DP-205); assay: microbe, parasite or virus in culture; conditions: strain no. 15, T-2077 (DP-205), clinical isolate, FKS1 HS1-S645P mutation
Description: as §1

[3] = system: C. glabrata TGL00107; assay: microbe, parasite or virus in culture; conditions: strain no. 23, TGL00107, parental CST34, FKS mutant
Description: as §1

[4] = system: C. glabrata TGL00277; assay: microbe, parasite or virus in culture; conditions: strain no. 33, TGL00277, parental EF1620, FKS mutant
Description: as §1

[5] = system: C. glabrata TGL00291; assay: microbe, parasite or virus in culture; conditions: strain no. 36, TGL00291, parental BG2, FKS mutant
Description: as §1

[6] = system: C. albicans SN95; assay: microbe, parasite or virus in culture
Description: as §1

[7] = system: C. glabrata DPL1086; assay: microbe, parasite or virus in culture; conditions: strain no. 17, DPL1086, parental ATCC 90030, FKS1 mutant HS1-S629P
Description: as §1

[8] = system: C. glabrata TGL00091; assay: microbe, parasite or virus in culture; conditions: strain no. 35, TGL00091, FKS mutant
Description: as §1

[9] = system: C. glabrata TGL00263; assay: microbe, parasite or virus in culture; conditions: strain no. 28, TGL00263, parental CST78, FKS mutant
Description: as §1

[10] = system: C. albicans T-2076 (DP-194); assay: microbe, parasite or virus in culture; conditions: strain no. 13, T-2076 (DP-194), clinical isolate, FKS1 HS1-S645F, HS2-R1361R/H mutation
Description: as §1

[11] = system: C. albicans DPL1016 (DP-A15-10); assay: microbe, parasite or virus in culture; conditions: strain no. 3, DPL1016 (DP-A15-10), parental SC5314, FKS1 mutant HS1-S645P
Description: as §1

[12] = system: C. glabrata TGL00275; assay: microbe, parasite or virus in culture; conditions: strain no. 32, TGL00275, FKS mutant
Description: as §1

[13] = system: C. glabrata TGL00264; assay: microbe, parasite or virus in culture; conditions: strain no. 29, TGL00264, parental CST78, FKS mutant
Description: as §1

[14] = system: C. glabrata TGL00253; assay: microbe, parasite or virus in culture; conditions: strain no. 20, TGL00253, parental CST109, FKS2 mutant
Description: as §1

[15] = system: C. glabrata T-191 (11-331); assay: MIC, broth double dilution; conditions: strain no. 43, T-191 (11-331), clinical isolate
Description: as §1

[16] = system: C. glabrata ATCC 2001; assay: MIC, broth double dilution; conditions: strain no. 39, C. glabrata ATCC 2001
Description: as §1

[17] = system: C. albicans SN152; assay: MIC, broth double dilution
Description: as §1

[18] = system: C. albicans ATCC 24433; assay: MIC, broth double dilution; conditions: strain no. 6, C. albicans ATCC 24433
Description: as §1

[19] = system: C. glabrata ATCC 90030; assay: MIC, broth double dilution; conditions: strain no. 16, C. glabrata ATCC 90030, WT
Description: as §1

[20] = system: C. glabrata ATCC 15126; assay: MIC, broth double dilution; conditions: strain no. 41, C. glabrata ATCC 15126
Description: as §1

[21] = system: C. albicans BWP17; assay: MIC, broth double dilution
Description: as §1

[22] = system: C. glabrata T-984 (11-078); assay: MIC, broth double dilution; conditions: strain no. 48, T-984 (11-078), clinical isolate
Description: as §1

[23] = system: C. glabrata CST109; assay: MIC, broth double dilution; conditions: strain no. 18, C. glabrata CST109 (parental)
Description: as §1

[24] = system: C. glabrata CST34; assay: MIC, broth double dilution; conditions: strain no. 21, C. glabrata CST34 (parental)
Description: as §1

[25] = system: C. glabrata T-192 (1775); assay: MIC, broth double dilution; conditions: strain no. 44, T-192 (1775), clinical isolate
Description: as §1

[26] = system: C. glabrata T-190 (11-304); assay: MIC, broth double dilution; conditions: strain no. 42, T-190 (11-304), clinical isolate
Description: as §1

[27] = system: C. glabrata T-982 (11-181); assay: MIC, broth double dilution; conditions: strain no. 46, T-982 (11-181), clinical isolate
Description: as §1

[28] = system: C. albicans ATCC 10231; assay: MIC, broth double dilution; conditions: strain no. 11, C. albicans ATCC 10231
Description: as §1

[29] = system: C. glabrata BG2; assay: MIC, broth double dilution; conditions: strain no. 34, C. glabrata BG2
Description: as §1

[30] = system: C. glabrata EF1620; assay: MIC, broth double dilution; conditions: strain no. 31, C. glabrata EF1620
Description: as §1

[31] = system: C. albicans SC5314; assay: MIC, broth double dilution; conditions: strain no. 1, C. albicans SC5314, WT
Description: as §1

[32] = system: C. glabrata ATCC 66032; assay: MIC, broth double dilution; conditions: strain no. 40, C. glabrata ATCC 66032
Description: as §1

[33] = system: C. glabrata T-983 (11-079); assay: MIC, broth double dilution; conditions: strain no. 47, T-983 (11-079), clinical isolate
Description: as §1

[34] = system: C. glabrata T-193 (11-282); assay: MIC, broth double dilution; conditions: strain no. 45, T-193 (11-282), clinical isolate
Description: as §1

[35] = strain no. 8, SN95, parental RM1000
[36] = strain no. 5, C. albicans SN152
[37] = strain no. 9, BWP17, parental RM1000

In the case of `C#CCOc1ccc([C@H](O)[C@@H](O)[C@@H]2NC(=O)[C@@H]3C[C@@H](O)CN3C(=O)[C@H]([C@@H](C)O)NC(=O)[C@@H](NC(=O)CCCCCCCC[C@@H](C)C[C@@H](C)CC)C[C@@H](O)[C@@H](NCCN)NC(=O)[C@@H]3[C@@H](O)CCN3C(=O)[C@H]([C@H](O)CCN)NC2=O)cc1` [Compound 1a], the MIC [1] is reported as over 64 µg/mL, the MIC [2] is reported as over 64 µg/mL and the MIC [3] is reported as over 64 µg/mL. The MIC [4] was over 64 µg/mL, the MIC [5] was over 64 µg/mL and the MIC [6, 35] was 0.125 µg/mL (≈ 0.11 µM). The MIC [7] was 4 µg/mL (≈ 3.54 µM), the MIC [8] was over 64 µg/mL and the MIC [9] was over 64 µg/mL. For the same compound, the MIC [10] was 32 µg/mL (≈ 28.3 µM), the MIC [11] was 16 µg/mL (≈ 14.1 µM) and the MIC [12] was 16 µg/mL (≈ 14.1 µM). The MIC [13] was over 64 µg/mL, the MIC [14] was over 64 µg/mL and the MIC [15] was 0.25 µg/mL (≈ 0.221 µM). The MIC [16] was 0.5 µg/mL (≈ 0.442 µM), the MIC [17, 36] was 0.063 µg/mL (≈ 0.0557 µM) and the MIC [18] was 0.125 µg/mL (≈ 0.11 µM). It also gave an MIC [19] of 1 µg/mL (≈ 0.884 µM), an MIC [20] of 1 µg/mL (≈ 0.884 µM) and an MIC [21, 37] of 0.063 µg/mL (≈ 0.0557 µM). For the same compound, the MIC [22] was 0.5 µg/mL (≈ 0.442 µM), the MIC [23] was 1 µg/mL (≈ 0.884 µM) and the MIC [24] was 0.25 µg/mL (≈ 0.221 µM). For the same compound, the MIC [25] was 0.5 µg/mL (≈ 0.442 µM), the MIC [26] was 0.5 µg/mL (≈ 0.442 µM) and the MIC [27] was 0.25 µg/mL (≈ 0.221 µM). It also gave an MIC [28] of 0.125 µg/mL (≈ 0.11 µM), an MIC [29] of 0.5 µg/mL (≈ 0.442 µM) and an MIC [30] of 0.5 µg/mL (≈ 0.442 µM). For the same compound, the MIC [31] was 0.125 µg/mL (≈ 0.11 µM), the MIC [32] was 1 µg/mL (≈ 0.884 µM) and the MIC [33] was 0.25 µg/mL (≈ 0.221 µM). It also gave an MIC [34] of 1 µg/mL (≈ 0.884 µM).
For `CC[C@H](C)C[C@H](C)CCCCCCCCC(=O)N[C@H]1C[C@@H](O)[C@@H](NCCN)NC(=O)[C@@H]2[C@@H](O)CCN2C(=O)[C@H]([C@H](O)CCN)NC(=O)[C@H]([C@H](O)[C@@H](O)c2ccc(OCc3cn(CCCNc4ccc([N+](=O)[O-])c5nonc45)nn3)cc2)NC(=O)[C@@H]2C[C@@H](O)CN2C(=O)[C@H]([C@@H](C)O)NC1=O` [Compound 2], the MIC [1] was over 64 µg/mL, the MIC [2] was over 64 µg/mL and the MIC [3] was over 64 µg/mL. For the same compound, the MIC [4] was over 64 µg/mL, the MIC [5] was over 64 µg/mL and the MIC [6, 35] was 2 µg/mL (≈ 1.43 µM). It also gave an MIC [7] of 32 µg/mL (≈ 22.9 µM), an MIC [8] of over 64 µg/mL and an MIC [9] of over 64 µg/mL. For the same compound, the MIC [10] was over 64 µg/mL, the MIC [11] was over 64 µg/mL and the MIC [12] was over 64 µg/mL. It also gave an MIC [13] of over 64 µg/mL, an MIC [14] of over 64 µg/mL and an MIC [15] of 2 µg/mL (≈ 1.43 µM). The MIC [16] was 2 µg/mL (≈ 1.43 µM), the MIC [17, 36] was 1 µg/mL (≈ 0.717 µM) and the MIC [18] was 1 µg/mL (≈ 0.717 µM). The MIC [19] was 4 µg/mL (≈ 2.87 µM), the MIC [20] was 4 µg/mL (≈ 2.87 µM) and the MIC [21, 37] was 1 µg/mL (≈ 0.717 µM). The MIC [22] was 2 µg/mL (≈ 1.43 µM), the MIC [23] was 4 µg/mL (≈ 2.87 µM) and the MIC [24] was 4 µg/mL (≈ 2.87 µM). The MIC [25] was 2 µg/mL (≈ 1.43 µM), the MIC [26] was 2 µg/mL (≈ 1.43 µM) and the MIC [27] was 2 µg/mL (≈ 1.43 µM). It also gave an MIC [28] of 2 µg/mL (≈ 1.43 µM), an MIC [29] of 4 µg/mL (≈ 2.87 µM) and an MIC [30] of 2 µg/mL (≈ 1.43 µM). It also gave an MIC [31] of 1 µg/mL (≈ 0.717 µM), an MIC [32] of 2 µg/mL (≈ 1.43 µM) and an MIC [33] of 2 µg/mL (≈ 1.43 µM). For the same compound, the MIC [34] was 4 µg/mL (≈ 2.87 µM).
Work on `CN(C)c1ccc2c(-c3ccc(C(=O)NCCCN=[N+]=[N-])cc3C(=O)[O-])c3ccc(=[N+](C)C)cc-3oc2c1` [Compound 5-TMR-azide] yielded an MIC [1] of over 64 µg/mL, an MIC [2] of over 64 µg/mL and an MIC [3] of over 64 µg/mL. The MIC [4] was over 64 µg/mL, the MIC [5] was over 64 µg/mL and the MIC [6] was over 64 µg/mL. For the same compound, the MIC [7] was over 64 µg/mL, the MIC [8] was over 64 µg/mL and the MIC [9] was over 64 µg/mL. The MIC [10] was over 64 µg/mL, the MIC [11] was over 64 µg/mL and the MIC [12] was over 64 µg/mL. It also gave an MIC [13] of over 64 µg/mL, an MIC [14] of over 64 µg/mL and an MIC [15] of over 64 µg/mL. The MIC [16] was over 64 µg/mL, the MIC [17] was over 64 µg/mL and the MIC [18] was over 64 µg/mL. For the same compound, the MIC [19] was over 64 µg/mL, the MIC [20] was over 64 µg/mL and the MIC [21] was over 64 µg/mL. It also gave an MIC [22] of over 64 µg/mL, an MIC [23] of over 64 µg/mL and an MIC [24] of over 64 µg/mL. For the same compound, the MIC [25] was over 64 µg/mL, the MIC [26] was over 64 µg/mL and the MIC [27] was over 64 µg/mL. It also gave an MIC [28] of over 64 µg/mL, an MIC [29] of over 64 µg/mL and an MIC [30] of over 64 µg/mL. The MIC [31] was over 64 µg/mL, the MIC [32] was over 64 µg/mL and the MIC [33] was over 64 µg/mL. The MIC [34] was over 64 µg/mL.
